Consider 1 compound from US20250122193A1, “NOVEL PYRIDOCARBAZOLIUM COMPOUNDS AND MEDICAL USES THEREOF” (MyCural Therapeutics, priority 2021, published 2025).

One experiment concerns the target Recombinant human Top2a (Homo sapiens, UniProt P11388). Put plainly: Top2 decatenation assay. The note with it: in vitro decatenation of kDNA. The experiment is classed as biochemical. How it is done: Top2 decatenation assay: Recombinant human Top2a (15 nM) was incubated with 80 ng catenated kinetoplast DNA (Topogen, TG2013) in Top2 reaction buffer (50 mM Tris pH8, 150 mM NaCl, 10 mM MgCl2, 0.5 mM DTT, 30 μg/ml BSA) with 1-100 μM of either doxorubicin, MYCMI-7, ellipticine or camptothecin for 10 minutes at 37° C. Drug dilutions were made in a DMSO/H2O solution so that a final concentration of 1% DMSO was consistent across all samples. The reaction was stopped with the addition of SDS to a final concentration of 1% and the Top2a was digested by Proteinase K at 55° C. for 10 minutes. DNA was purified by phenol:chloroform extraction before running on a 1% agarose gel either containing or post-stained with 0.5 μg/ml ethidium bromide. The decatenated products were quantified, normalised to the Top2α+DMSO control and plotted using GraphPad Prism.
First, we utilized an in vitro TOP2A decatenation assay. TOP2 enzymes decatenate kinetoplast DNA (kDNA) converting a network of interlocking DNA rings into individual rings that can be separated by agarose gel electrophoresis.

A further experiment has as its system MDA-MB-231. Put plainly: MDA-MB-231 cells in cell culture. The experiment is classed as cell-based. The note with it: Homo sapiens. The procedure:
We next studied the effects of MYCMI-7 in a xenograft model of the human basal-like breast cancer cell line MDA-MB-231. The cells were highly sensitive to MYCMI-7 treatment in cell culture (data not shown), with a GI50 around 1 μM.

Experiment [1] deals with MYCN-amplified SK-N-DZ neuroblastoma xenograft. Put plainly: SK-N-DZ neuroblastoma xenograft.
Method: A) Tumor growth of MDA-MB-231 xenografts in mice injected with 6.25 mg/kg MYCMI-7 or vehicle intratumorally twice a week until sacrificed. Tumor growth was monitored by measuring tumor size (mm^3) every 4th day. B) Survival curve of the mice in A) sacrificed when the tumors reached a volume of 1000 mm^3. C) Immunohistochemistry staining for MYC and apoptosis marker caspase 3 in MDA-MB-231 tumor tissue from vehicle- and MYCMI-7 treated animals at end point, D) Immunofluorescence staining of proliferation and apoptosis markers Ki67 and TUNEL, respectively, in MDA-MB-231 xenograft tumor tissue from vehicle- and MYCMI-7 treated animals at end point. E) MYCN-amplified SK-N-DZ neuroblastoma xenograft mice injected with 6.25 mg/kg MYCMI-7 or vehicle intratumorally twice a week until sacrificed. Tumor growth was monitored by measuring tumor volume (ml) daily. F) Survival curve of mice in E) sacrificed at a tumor volume of 1500 mm^3. G-H) H&E (G) and MYCN IHC (H) stainings of SK-N-DZ xenograft tumor tissue from vehicle- and MYCMI-7 treated animals at end point. A-H) At the end points, the last injection was done 3 hrs before sacrifice. Images were taken at 10× or 40× magnification.
For the xenograft transplantation mouse tumor models of breast cancer and neuroblastoma, 6-8 weeks old NOD/SCID mice (Taconic) or NMRI nu/nu (Scanbur) were injected s.c. with 5×10^6 MDA-MB-231 breast cancer cells or MYCN-amplified SK-N-DZ neuroblastoma cells. When tumors reached a size of 100-200 mm^3, mice started receiving treatment (6.25 mg/kg MYCMI-7) administered intratumorally (50 ml) twice per week. The last dose was administered 3 hrs before termination. Mice were sacrificed when the tumors had reached as size of 1000 mm^3 (MDA-MB-231) or 1500 mm^3 (SK-N-DZ). Tumors were collected and frozen in OCT (Cryomount, Histolab) or fixed in buffered 4% formaldehyde solution (Histolab) and paraffin-embedded.
Immunohistochemistry andimmunofluorescence: Apoptosis was visualized at the single-cell level on tumor cryosections using the TUNEL method using the In Situ Cell Death Detection Fluorescein-Roche kit and analyzed by fluorescence microscopy. Briefly, tumor cryosections were fixed in 4% paraformaldyde (PFA) and the assay was performed following the instructions from the manufacturer. Negative controls were run using the reagent without the TdT enzyme. Samples were mounted using Vectashield mounting medium (Vector) and DAPI was used as nuclear counterstaining. […] Visualization and image acquisition was done in a Zeiss microscope, and for panoramic views by a Vectra imaging system. For quantification, areas with positive TUNEL and Ki67 staining were measured using Image J software.
The target of a further experiment is MYC:MAX interaction (Homo sapiens, UniProt P01106). Briefly: split Gaussia luciferase (GLuc) assay, MYC:MAX. The note with it: 5 μM. In kind it is cell-based. Further details: replacing the existing Zip-gene (GCN4) with full length MYC, MYCN or MAX cDNA; expressed in transfected cells; host or cells: HeLa. How it is done:
A) Molecular structure of MYCMI-7. B-E) split Gaussia luciferase (GLuc) assay. MYC or MYCN and MAX Gluc constructs were co-transfected into HeLa cells together with a firefly luciferase vector. 24 hours post transfection cells were treated with compounds, and after another 17-24 hours cells were harvested and both GLuc and firefly luciferase activities were measured. The mean of three different experiments is shown. Treatment with: B) 5 μM of MYCMI-7, 64 μM 10058-F4 or 5 μM JQ1, respectively, C) 6.5 μM MYCMI-7 on cells expressing MYC:MAX GLuc vs. GCN4:GCN4 GLuc, D) 5 μM MYCMI-7 and 5 μM ellipticine. E) 5 μM MYCMI-7 for various time points. F) in situ proximity ligation assay (isPLA). […] MYC:GAL4 was used as negative control in the isPLA assay. G) Quantification of isPLA dots. (H) Co-immunoprecipitation (co-IP) of endogenous MYC and MAX proteins from MCF7 cells after treatment with 5 μM MYCMI-7 at various times. IP=immunoprecipitation; W=western blot. I) Chromatin immunoprecipitation (ChIP) of MYC at the ODC1 target gene promoter after treatment of cells with 5 μM MYCMI-7 for 6 hours. J) MYC target gene ODC1 expression after treatment with 5 μM MYCMI-7, quantified by qPCR. K) ChIP of MYC at the ODC promoter in MCF7 cells after 5 μM MYCMI-7 treatment for indicated time points. L) Recombinant MYC bHLHZip protein domain immobilized onto a CM5 chip was subjected to various concentrations of MYCMI-7 and the complex of MYCbHLHZip-MYCMI-7 was measured as response units by SPR. The sensogram was produced by subtracting the blank response.
0.2-0.4 μg of each GLuc-construct together with 0.05 μg pCMV-LUC (firefly luciferase) were used per transfection in 12 well plates. 24 hours later cells were treated with compound or DMSO. After another 17 hours, the cells were harvested and lyzed in passive lysis buffer (Promega) supplemented with complete protease inhibitor (Roche). After 60 min incubation at room temperature 20 μM D-luciferin was added (substrate of Firefly luciferase) and luminescence was measured in a Lumat LB9501 (Berthold) or OmegaFluostar (BMG Labtech) luminometer. Directly after, Gaussia luciferase substrate Coelenterazine (Promega) was added to a final concentration of 20 μM in a mixture with “Stop n' Glow” (Promega) and the luciferase activity was measured. The ratio between Gaussia and Firefly luciferase values were calculated and normalized to DMSO-treated control cells.

Where [2] appears, read: 6.25 mg/kg intratumoral twice a week.

Some results are limits rather than exact numbers.

Chain of MYC:MAX interaction (P01106 16-454): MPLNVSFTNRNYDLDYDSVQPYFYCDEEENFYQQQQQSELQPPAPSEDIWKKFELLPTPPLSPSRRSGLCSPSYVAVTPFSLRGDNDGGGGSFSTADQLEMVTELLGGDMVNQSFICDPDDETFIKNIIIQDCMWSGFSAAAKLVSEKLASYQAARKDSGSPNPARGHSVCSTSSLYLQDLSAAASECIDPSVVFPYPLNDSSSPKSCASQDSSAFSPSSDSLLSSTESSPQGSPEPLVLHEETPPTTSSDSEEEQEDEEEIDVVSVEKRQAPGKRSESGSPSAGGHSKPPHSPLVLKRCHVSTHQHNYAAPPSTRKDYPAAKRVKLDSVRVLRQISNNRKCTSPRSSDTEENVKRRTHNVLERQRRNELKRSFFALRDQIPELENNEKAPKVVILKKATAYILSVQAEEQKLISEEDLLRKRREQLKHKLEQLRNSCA
Chain of Recombinant human Top2a (P11388 whole entry): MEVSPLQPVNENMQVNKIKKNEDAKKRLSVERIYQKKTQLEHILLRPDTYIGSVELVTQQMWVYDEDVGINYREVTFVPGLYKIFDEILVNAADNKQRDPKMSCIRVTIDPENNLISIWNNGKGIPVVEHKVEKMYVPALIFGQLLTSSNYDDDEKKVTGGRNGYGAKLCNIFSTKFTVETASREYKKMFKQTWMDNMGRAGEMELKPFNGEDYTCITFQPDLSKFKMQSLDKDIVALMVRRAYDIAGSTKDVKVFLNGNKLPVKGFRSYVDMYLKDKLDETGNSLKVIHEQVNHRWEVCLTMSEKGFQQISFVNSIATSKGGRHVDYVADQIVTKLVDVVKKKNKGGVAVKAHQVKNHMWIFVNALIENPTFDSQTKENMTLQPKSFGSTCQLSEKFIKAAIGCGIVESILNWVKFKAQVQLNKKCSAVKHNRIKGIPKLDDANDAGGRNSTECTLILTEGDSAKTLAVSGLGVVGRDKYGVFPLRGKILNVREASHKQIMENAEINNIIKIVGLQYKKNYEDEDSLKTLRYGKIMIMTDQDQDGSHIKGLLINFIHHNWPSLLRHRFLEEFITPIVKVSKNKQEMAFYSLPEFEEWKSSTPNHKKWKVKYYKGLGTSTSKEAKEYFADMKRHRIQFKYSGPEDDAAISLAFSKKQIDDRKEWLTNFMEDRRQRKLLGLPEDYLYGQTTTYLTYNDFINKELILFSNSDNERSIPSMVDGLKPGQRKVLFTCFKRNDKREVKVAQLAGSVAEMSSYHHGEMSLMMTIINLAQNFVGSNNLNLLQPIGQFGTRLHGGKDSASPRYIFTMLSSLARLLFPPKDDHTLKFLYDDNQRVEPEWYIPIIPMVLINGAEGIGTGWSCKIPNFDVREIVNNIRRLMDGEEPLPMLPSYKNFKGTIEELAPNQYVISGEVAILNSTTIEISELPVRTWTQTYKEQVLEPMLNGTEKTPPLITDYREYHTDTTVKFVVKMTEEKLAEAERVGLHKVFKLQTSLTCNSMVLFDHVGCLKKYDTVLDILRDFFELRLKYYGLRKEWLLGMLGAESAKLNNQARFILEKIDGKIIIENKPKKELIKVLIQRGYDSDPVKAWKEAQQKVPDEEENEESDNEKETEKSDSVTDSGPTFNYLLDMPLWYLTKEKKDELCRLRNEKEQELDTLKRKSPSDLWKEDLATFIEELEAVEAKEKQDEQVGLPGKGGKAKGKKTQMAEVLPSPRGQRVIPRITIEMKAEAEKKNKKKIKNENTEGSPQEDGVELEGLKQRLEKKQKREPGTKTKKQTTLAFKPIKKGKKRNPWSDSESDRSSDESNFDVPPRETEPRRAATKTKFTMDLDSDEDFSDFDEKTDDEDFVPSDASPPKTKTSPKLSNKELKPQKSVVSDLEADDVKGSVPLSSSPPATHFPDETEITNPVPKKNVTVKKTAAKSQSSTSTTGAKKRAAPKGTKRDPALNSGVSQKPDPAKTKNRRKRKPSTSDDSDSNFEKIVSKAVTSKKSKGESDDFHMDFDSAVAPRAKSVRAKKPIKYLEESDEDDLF

What is called GI50 is the concentration giving 50% growth inhibition. As to `CCN(CC)CC[n+]1ccc2c(C)c3[nH]c4ccccc4c3c(C)c2c1` [MYCMI-7, 2-(5,11-Dimethyl-6H-25-pyrido[4,3-b]carbazol-2-yl)-N,N-diethylethanamine bromide], at Recombinant human Top2a, the “concentration at which TOP2A inhibition starts” value was “higher than 10 μM” and the “concentration of complete TOP2A inhibition” value worked out at 100 µM. The compound also showed a GI50 with MDA-MB-231 of around 1000 nM. For the same compound, in experiment [1] (setting [2]), the survival result is “significantly increased survival” and the tumor growth entry is listed as “reduced tumor growth”. In experiment [1] (mouse, in vivo), the “H&E staining of tumor tissue” value is on record as “massive apoptosis and/or necrosis as well as hemorrhage” and the “MYCN expression in tumor cells (IHC)” value is listed as “strong reduction in MYCN expression”. In addition, the “time of treatment within which MYC:MAX interaction was inhibited” value on MYC:MAX interaction is at most 4 h. For the same compound, the “inhibition of MYC:MAX GLuc interaction” value against MYC:MAX interaction (HeLa cells) was “inhibited”.
